The values that follow are results of earlier work, collected in US10577339B2, “Method for manufacturing furan-2,5-dicarboxylic acid (FDCA) from a salt solution” (PURAC BIOCHEM BV, priority 2015, dated 2020).

The conditions of the data set: at 40° C.

As for `O=S(=O)([O-])[O-].[Na+].[Na+]` [Na2SO4, sodium sulphate], the saturation concentration was 32.8%.
